This passage reports IC50 results from patent publication US11597721B2, “Heterocyclic compounds comprising pyridine useful as modulators of IL-12, IL-23 and/or IFNα responses” (BRISTOL-MYERS SQUIBB COMPANY, priority 2018, dated 2023).

As usually defined, the IC50 is the point on the concentration scale where inhibition reaches its midpoint.

Each structure is given as a SMILES string.

One assay concerns IFNα-Induced STAT Phosphorylation. Briefly: IFNα-Induced STAT Phosphorylation in Human Whole Blood. The following applies: 1 h compound incubation, 1000 U/mL recombinant human IFNα A/D for 15 min, pSTAT5 in CD3 positive population, read-out: LE Human WB IFNα-Induced Stat Phosph. (IC50). In kind it is cell-based. The text has this:
IFNα-Induced STAT Phosphorylation in Human Whole Blood
The amount of pSTAT5 expression was quantitated by median fluorescence intensity after gating on the CD3 positive population.
As to `[2H]C([2H])([2H])NC(=O)c1nnc(Nc2ccccn2)cc1Nc1nccc(-c2ncn(C)n2)c1OC` [Example 2, 4-{[3-methoxy-4-(1-methyl-1H-1,2,4-triazol-3-yl)pyridin-2-yl]amino}-N—(^2H3)methyl-6-[(pyridin-2-yl)amino]pyridazine-3-carboxamide], the IC50 came to 50 nM.

Regarding `[2H]C([2H])([2H])NC(=O)c1nnc(Nc2ccccn2)cc1Nc1nccc(-c2ncn(C)n2)c1OC` [Example 28], the IC50 came out at 270 nM.

The assay is the same for the next values; noted with them: Homo sapiens, 1 h compound incubation, 1000 U/mL recombinant human IFNα A/D for 15 min, pSTAT5 in CD3 positive population, read-out: LE Human WB IFNα-Induced Stat Phosph. (IC50).
For `[2H]C([2H])([2H])NC(=O)c1nnc(Nc2cc(C)n(C)n2)cc1Nc1nccc(-c2cnc(C(=O)N(C)C)cn2)c1OC` [Example 91, 6-((1,5-Dimethyl-1H-pyrazol-3-yl)amino)-4-((4-(5-(dimethylcarbamoyl)pyrazin-2-yl)-3-methoxypyridin-2-yl)amino)-N-(methyl-d3)pyridazine-3-carboxamide], the IC50 is 90 nM.

Regarding `[2H]C([2H])([2H])NC(=O)c1nnc(NC(=O)CC2CC2)cc1Nc1nccc(-c2cnc(C(=O)N(C)C)cn2)c1OC` [Example 89, 6-(2-Cyclopropylacetamido)-4-((4-(5-(dimethylcarbamoyl)pyrazin-2-yl)-3-methoxypyridin-2-yl)amino)-N-(methyl-d3)pyridazine-3-carboxamide], the IC50 stood at 210 nM.

As to `[2H]C([2H])([2H])NC(=O)c1nnc(Nc2cc(F)c(F)cn2)cc1Nc1nccc(-c2ncn(C)n2)c1OC` [Example 39, 6-[(4,5-difluoropyridin-2-yl)amino]-4-{[3-methoxy-4-(1-methyl-1H-1,2,4-triazol-3-yl)pyridin-2-yl]amino}-N—(^2H3)methylpyridazine-3-carboxamide], the IC50 came out at 220 nM.

As to `[2H]C([2H])([2H])NC(=O)c1cnc(NC(=O)CC2CC2)cc1Nc1nccc(-c2noc(C)n2)c1OC` [Example 44, 6-(2-cyclopropylacetamido)-4-{[3-methoxy-4-(5-methyl-1,2,4-oxadiazol-3-yl)pyridin-2-yl]amino}-N—(^2H3)methylpyridine-3-carboxamide], the IC50 was found to be 90 nM.

For the compound `[2H]C([2H])([2H])NC(=O)c1nnc(Nc2ccc(C(C)(C)O)cn2)cc1Nc1nccc(-c2noc(C)n2)c1OC` [Example 82, 6-{[5-(2-hydroxypropan-2-yl)pyridin-2-yl]amino}-4-{[3-methoxy-4-(5-methyl-1,2,4-oxadiazol-3-yl)pyridin-2-yl]amino}-N—(^2H3)methylpyridazine-3-carboxamide], the IC50 was found to be 30 nM.

With `[2H]C([2H])([2H])NC(=O)c1nnc(NC(=O)CC)cc1Nc1nccc(-c2noc(COC)n2)c1OC` [Example 66, 4-({3-methoxy-4-[5-(methoxymethyl)-1,2,4-oxadiazol-3-yl]pyridin-2-yl}amino)-N—(^2H3)methyl-6-propanamidopyridazine-3-carboxamide], the IC50 stood at 210 nM.

As to `[2H]C([2H])([2H])NC(=O)c1nnc(Nc2cc(C(F)(F)F)ccn2)cc1Nc1nccc(-c2ncn(C)n2)c1OC` [Example 32, 4-{[3-methoxy-4-(1-methyl-1H-1,2,4-triazol-3-yl)pyridin-2-yl]amino}-N—(^2H3)methyl-6-{[4-(trifluoromethyl)pyridin-2-yl]amino}pyridazine-3-carboxamide], the IC50 came out at 90 nM.

For the compound `[2H]C([2H])([2H])NC(=O)c1nnc(Nc2cc(CC)ccn2)cc1Nc1nccc(-c2ncn(C)n2)c1OC` [Example 17, 6-[(4-ethylpyridin-2-yl)amino]-4-{[3-methoxy-4-(1-methyl-1H-1,2,4-triazol-3-yl)pyridin-2-yl]amino}-N—(^2H3)methylpyridazine-3-carboxamide], the IC50 was 50 nM.

`[2H]C([2H])([2H])NC(=O)c1nnc(NC(=O)CC(C)C)cc1Nc1nccc(-c2noc(CN3CCOCC3)n2)c1OC` [Example 69, 4-[(3-methoxy-4-{5-[(morpholin-4-yl)methyl]-1,2,4-oxadiazol-3-yl}pyridin-2-yl)amino]-N—(^2H3)methyl-6-(3-methylbutanamido)pyridazine-3-carboxamide]: the half-inhibitory concentration (IC50) amounted to 700 nM.

For `[2H]C([2H])([2H])NC(=O)c1nnc(NC(=O)C2CC2)cc1Nc1nccc(-c2noc([C@H](C)O)n2)c1OC` [Example 57, 6-cyclopropaneamido-4-[(4-{5-[(1S)-1-hydroxyethyl]-1,2,4-oxadiazol-3-yl}-3-methoxypyridin-2-yl)amino]-N—(^2H3)methylpyridazine-3-carboxamide], the IC50 was 60 nM.

For the compound `[2H]C([2H])([2H])NC(=O)c1nnc(NC(=O)C2CC2)cc1Nc1nccc(-c2noc(CN(C)S(C)(=O)=O)n2)c1OC` [Example 54, 6-cyclopropaneamido-4-[(3-methoxy-4-{5-[(N-methylmethanesulfonamido)methyl]-1,2,4-oxadiazol-3-yl}pyridin-2-yl)amino]-N—(^2H3)methylpyridazine-3-carboxamide], the 50% inhibitory concentration (IC50) was 10 nM.

Turning to `[2H]C([2H])([2H])NC(=O)c1cnc(NC(=O)C2CC2)cc1Nc1nccc(-c2ccc(NC(=O)C3CC3)cn2)c1OC` [Example 85, 6-(Cyclopropanecarboxamido)-4-((5-(cyclopropanecarboxamido)-3′-methoxy-[2,4′-bipyridin]-2′-yl)amino)-N-(methyl-d3)nicotinamide], the IC50 turned out to be 150 nM.

Turning to `[2H]C([2H])([2H])NC(=O)c1nnc(Nc2cc(C)ccn2)cc1Nc1nccc(-c2noc(CN(C)S(C)(=O)=O)n2)c1OC` [Example 61, 4-[(3-methoxy-4-{5-[(N-methylmethanesulfonamido)methyl]-1,2,4-oxadiazol-3-yl}pyridin-2-yl)amino]-N—(^2H3)methyl-6-[(4-methylpyridin-2-yl)amino]pyridazine-3-carboxamide], the IC50 was determined as 300 nM.

Regarding `[2H]C([2H])([2H])NC(=O)c1nnc(NC(=O)C2CC2)cc1Nc1nccc(-c2cnc(C(=O)N(C)CC)cn2)c1OC` [Example 88, 6-(Cyclopropanecarboxamido)-4-((4-(5-(ethyl(methyl)carbamoyl)pyrazin-2-yl)-3-methoxypyridin-2-yl)amino)-N-(methyl-d3)pyridazine-3-carboxamide], the IC50 was 130 nM.

`[2H]C([2H])([2H])NC(=O)c1nnc(NC(=O)OC)cc1Nc1nccc(-c2noc(CN(C)S(C)(=O)=O)n2)c1OC` [Example 52, methyl N-{5-[(3-methoxy-4-{5-[(N-methylmethanesulfonamido)methyl]-1,2,4-oxadiazol-3-yl}pyridin-2-yl)amino]-6-[(^2H3)methylcarbamoyl]pyridazin-3-yl}carbamate]: the IC50 turned out to be 110 nM.

For `[2H]C([2H])([2H])NC(=O)c1nnc(Nc2cc(F)ccn2)cc1Nc1nccc(-c2ncn(C)n2)c1OC` [Example 19, 6-[(4-fluoropyridin-2-yl)amino]-4-{[3-methoxy-4-(1-methyl-1H-1,2,4-triazol-3-yl)pyridin-2-yl]amino}-N—(^2H3)methylpyridazine-3-carboxamide], the IC50 was determined as 30 nM.

As to `[2H]C([2H])([2H])NC(=O)c1nnc(Nc2ccc(C(C)(C)O)cn2)cc1Nc1nccc(-c2ncn(C)n2)c1OC` [Example 33, 6-{[5-(2-hydroxypropan-2-yl)pyridin-2-yl]amino}-4-{[3-methoxy-4-(1-methyl-1H-1,2,4-triazol-3-yl)pyridin-2-yl]amino}-N—(^2H3)methylpyridazine-3-carboxamide], the IC50 came out at 20 nM.

Take `[2H]C([2H])([2H])NC(=O)c1cnc(NC(=O)CC)cc1Nc1nccc(-c2noc(COC)n2)c1OC` [Example 48, 4-({3-methoxy-4-[5-(methoxymethyl)-1,2,4-oxadiazol-3-yl]pyridin-2-yl}amino)-N—(^2H3)methyl-6-propanamidopyridine-3-carboxamide]: the IC50 is 200 nM.

For the compound `[2H]C([2H])([2H])NC(=O)c1cnc(Nc2cc(C#N)ccn2)cc1Nc1nccc(-c2nnn(C)n2)c1OC` [Example 106, 6-[(4-cyanopyridin-2-yl)amino]-4-{[3-methoxy-4-(2-methyl-2H-1,2,3,4-tetrazol-5-yl)pyridin-2-yl]amino}-N—(^2H3)methylpyridine-3-carboxamide], the IC50 is 70 nM.

As to `[2H]C([2H])([2H])NC(=O)c1nnc(NC(=O)C2CC2)cc1Nc1nccc(-c2noc(CN(C)C)n2)c1OC` [Example 58, 6-cyclopropaneamido-4-[(4-{5-[(dimethylamino)methyl]-1,2,4-oxadiazol-3-yl}-3-methoxypyridin-2-yl)amino]-N—(^2H3)methylpyridazine-3-carboxamide], the IC50 worked out at 60 nM.

Consider `[2H]C([2H])([2H])NC(=O)c1cnc(NC(=O)C2CC2)cc1Nc1nccc(-c2noc(COC(C)C)n2)c1OC` [Example 47, 6-cyclopropaneamido-4-[(3-methoxy-4-{5-[(propan-2-yloxy)methyl]-1,2,4-oxadiazol-3-yl}pyridin-2-yl)amino]-N—(^2H3)methylpyridine-3-carboxamide], for which the IC50 stood at 20 nM.

With `[2H]C([2H])([2H])NC(=O)c1nnc(Nc2ccc(OCC)nn2)cc1Nc1nccc(-c2ncn(C)n2)c1OC` [Example 36, 6-[(6-ethoxypyridazin-3-yl)amino]-4-{[3-methoxy-4-(1-methyl-1H-1,2,4-triazol-3-yl)pyridin-2-yl]amino}-N—(^2H3)methylpyridazine-3-carboxamide], the IC50 amounted to 30 nM.

As for `[2H]C([2H])([2H])NC(=O)c1nnc(Nc2ccc(N3CCN(C(C)(C)C)C3=O)cn2)cc1Nc1nccc(-c2ncn(C)n2)c1OC` [Example 37, 6-{[5-(3-tert-butyl-2-oxoimidazolidin-1-yl)pyridin-2-yl]amino}-4-{[3-methoxy-4-(1-methyl-1H-1,2,4-triazol-3-yl)pyridin-2-yl]amino}-N—(^2H3)methylpyridazine-3-carboxamide], the IC50 stood at 130 nM.

`[2H]C([2H])([2H])NC(=O)c1nnc(Nc2cc(C)ccn2)cc1Nc1nccc(-c2noc(CN3CCOCC3)n2)c1OC` [Example 42, 4-((3-methoxy-4-(5-(morpholinomethyl)-1,2,4-oxadiazol-3-yl)pyridin-2-yl)amino)-N-trideuteromethyl-6-((4-methylpyridin-2-yl)amino)pyridazine-3-carboxamide]: the IC50 is 580 nM.
